Here are results for eight molecules from ChEMBL document CHEMBL3400044, “Minimization of drug-drug interaction risk and candidate selection in a natural product-based class of gamma-secretase modulators” (Bioorg Med Chem Lett, 2015).

The data set is described as follows: physchem.
For `CCO[C@@H]([C@H]1C[C@@H](C)[C@H]2[C@H](O1)[C@H](O)[C@@]1(C)[C@@H]3CC[C@H]4C(C)(C)[C@@H](O[C@H]5CN(CC(=O)N6CCC6)CCO5)CC[C@@]45C[C@@]35CC[C@]21C)C(C)(C)O`, the pKa stood at 5.2.

`CCO[C@@H]([C@H]1C[C@@H](C)[C@H]2[C@H](O1)[C@H](O)[C@@]1(C)[C@@H]3CC[C@H]4C(C)(C)[C@@H](O[C@H]5CN(C6(C)COC6)CCO5)CC[C@@]45C[C@@]35CC[C@]21C)C(C)(C)O` registered a pKa of 5.2.

The molecule `CCO[C@@H]([C@H]1C[C@@H](C)[C@H]2[C@H](O1)[C@H](O)[C@@]1(C)[C@@H]3CC[C@H]4C(C)(C)[C@@H](O[C@H]5CN(C6CNC6)CCO5)CC[C@@]45C[C@@]35CC[C@]21C)C(C)(C)O` yielded a pKa of 10.7.

With `CCO[C@@H]([C@H]1C[C@@H](C)[C@H]2[C@H](O1)[C@H](O)[C@@]1(C)[C@@H]3CC[C@H]4C(C)(C)[C@@H](O[C@H]5CN(C)CCO5)CC[C@@]45C[C@@]35CC[C@]21C)C(C)(C)O`, the pKa was 7.2.

`CCO[C@@H]([C@H]1C[C@@H](C)[C@H]2[C@H](O1)[C@H](O)[C@@]1(C)[C@@H]3CC[C@H]4C(C)(C)[C@@H](O[C@H]5CN(CC)CCO5)CC[C@@]45C[C@@]35CC[C@]21C)C(C)(C)O`: the pKa came out at 7.3.

For `CCO[C@@H]([C@H]1C[C@@H](C)[C@H]2[C@H](O1)[C@H](O)[C@@]1(C)[C@@H]3CC[C@H]4C(C)(C)[C@@H](O[C@H]5CN(CCN6CCC6)CCO5)CC[C@@]45C[C@@]35CC[C@]21C)C(C)(C)O`, the pKa worked out at 9.4.

As to `CCO[C@@H]([C@H]1C[C@@H](C)[C@H]2[C@H](O1)[C@H](O)[C@@]1(C)[C@@H]3CC[C@H]4C(C)(C)[C@@H](O[C@H]5CN(C6COC6)CCO5)CC[C@@]45C[C@@]35CC[C@]21C)C(C)(C)O`, the pKa was determined as 5.1.

Consider `CCO[C@@H]([C@H]1C[C@@H](C)[C@H]2[C@H](O1)[C@H](O)[C@@]1(C)[C@@H]3CC[C@H]4C(C)(C)[C@@H](O[C@H]5CNCCO5)CC[C@@]45C[C@@]35CC[C@]21C)C(C)(C)O`, for which the pKa stood at 7.8.
